The text below walks through data of ChEMBL document CHEMBL1143351 (J Med Chem, 2009).

The structures appear in SMILES notation.

The term Ki denotes a measure of affinity in units of concentration, obtained from inhibition or displacement. A high value points to weaker binding.

The target in the first assay is Nitric oxide synthase 1 (Rattus norvegicus, UniProt P29476).
Nitric oxide synthase 1, sequence (P29476 whole entry): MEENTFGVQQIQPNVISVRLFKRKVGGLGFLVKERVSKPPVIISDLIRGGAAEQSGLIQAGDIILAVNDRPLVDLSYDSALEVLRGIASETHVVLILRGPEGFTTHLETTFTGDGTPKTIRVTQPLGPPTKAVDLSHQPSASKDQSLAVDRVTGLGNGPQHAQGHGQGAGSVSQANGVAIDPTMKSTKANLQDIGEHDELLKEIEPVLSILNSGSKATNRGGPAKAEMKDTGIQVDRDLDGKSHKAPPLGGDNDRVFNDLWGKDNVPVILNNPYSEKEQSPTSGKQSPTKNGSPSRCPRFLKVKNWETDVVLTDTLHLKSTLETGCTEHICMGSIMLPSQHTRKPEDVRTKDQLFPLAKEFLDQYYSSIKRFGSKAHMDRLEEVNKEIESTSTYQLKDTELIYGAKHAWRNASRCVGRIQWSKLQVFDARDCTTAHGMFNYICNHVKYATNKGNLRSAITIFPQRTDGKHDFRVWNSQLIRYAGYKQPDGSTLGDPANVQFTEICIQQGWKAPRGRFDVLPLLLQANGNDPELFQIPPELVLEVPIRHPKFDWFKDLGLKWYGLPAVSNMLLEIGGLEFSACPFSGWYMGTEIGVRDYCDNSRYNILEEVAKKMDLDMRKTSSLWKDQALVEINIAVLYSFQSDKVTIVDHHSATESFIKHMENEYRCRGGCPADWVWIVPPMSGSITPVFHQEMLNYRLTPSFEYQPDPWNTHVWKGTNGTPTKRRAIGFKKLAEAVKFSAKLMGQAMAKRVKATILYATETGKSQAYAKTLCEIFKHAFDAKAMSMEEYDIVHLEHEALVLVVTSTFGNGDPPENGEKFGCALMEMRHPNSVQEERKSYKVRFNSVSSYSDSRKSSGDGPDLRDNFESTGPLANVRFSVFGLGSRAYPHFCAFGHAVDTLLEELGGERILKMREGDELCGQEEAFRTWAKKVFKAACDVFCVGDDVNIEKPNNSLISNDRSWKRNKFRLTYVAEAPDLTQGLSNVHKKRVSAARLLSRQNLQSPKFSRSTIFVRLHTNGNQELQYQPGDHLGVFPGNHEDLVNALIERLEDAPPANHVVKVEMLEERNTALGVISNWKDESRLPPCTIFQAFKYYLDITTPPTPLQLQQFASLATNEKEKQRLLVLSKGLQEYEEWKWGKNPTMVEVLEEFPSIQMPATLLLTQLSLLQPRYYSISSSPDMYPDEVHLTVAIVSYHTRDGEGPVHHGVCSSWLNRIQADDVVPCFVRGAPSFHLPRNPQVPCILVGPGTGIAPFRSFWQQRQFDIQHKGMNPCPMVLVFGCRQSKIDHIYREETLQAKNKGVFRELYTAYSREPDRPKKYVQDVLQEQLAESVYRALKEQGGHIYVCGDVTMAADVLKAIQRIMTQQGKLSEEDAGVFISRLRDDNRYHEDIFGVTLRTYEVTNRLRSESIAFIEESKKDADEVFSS
Description: Inhibition of rat recombinant nNOS expressed in Escherichia coli by hemoglobin capture assay
For `Nc1cccc(C[C@H]2CNC[C@H]2NC[C@@H](N)Cc2ccccc2)n1` (racemic), the affinity, expressed as Ki, was 2.3 µM.
Regarding `Nc1cccc(C[C@H]2CNC[C@H]2NC[C@H](N)Cc2ccccc2)n1` (racemic), affinity was put at a Ki of 2.42 µM.
For `Cc1cc(N)nc(C[C@H]2CNC[C@H]2NCCNCCc2ccc(F)cc2)c1` (racemic), the Ki was determined as 0.027 µM.
The compound `Cc1cccc(CNCCN[C@@H]2CNC[C@@H]2Cc2cc(C)cc(N)n2)c1` (racemic) showed a Ki of 0.159 µM.
The same measure, in the same setting: under `CN(C)CCN[C@@H]1CNC[C@@H]1Cc1cccc(N)n1` (racemic) stands 3.33 µM; under `Cc1cc(N)nc(C[C@H]2CNC[C@H]2NCCNCc2ccc(C(F)(F)F)cc2)c1` (racemic), 0.197 µM; under `Nc1cccc(C[C@H]2CNC[C@H]2N[C@H]2CCNC2)n1` (racemic), 1.26 µM.
Still for that read-out and setting: next, `Cc1cc(N)nc(C[C@H]2CNC[C@H]2NCCNCc2cccc(C(F)(F)F)c2)c1` (racemic): 0.206 µM.
Still for that read-out and setting: next, `CC(=O)[C@@H]1C[C@@H](NC(=O)[C@@H](N)CCCNC(=N)N[N+](=O)[O-])CN1`: 0.1 µM; `Nc1cccc(C[C@H]2CNC[C@H]2N[C@@H]2CCNC2)n1` (racemic): 1.36 µM; `Cc1cc(N)nc(C[C@H]2CNC[C@H]2NCCNCc2ccc(Cl)c(Cl)c2)c1` (racemic): 0.157 µM.
`Cc1cc(C[C@H]2CNC[C@H]2NCCNCCc2cccc(F)c2)cc(N)n1` (racemic) registered a Ki of 0.551 µM.
Consider `Nc1cccc(C[C@H]2CNC[C@H]2NCCNCc2ccccc2)n1` (racemic), for which the affinity corresponds to a Ki of 1.18 µM.
Still for that read-out and setting: under `Nc1cccc(C[C@H]2CNC[C@H]2N[C@H]2CCN(Cc3ccccc3)C2)n1` (racemic) stands 3.34 µM.
Same read-out and setting: next, `Nc1cccc(C[C@H]2CNC[C@H]2N[C@@H]2CCN(Cc3ccccc3)C2)n1` (racemic): 2.74 µM; `CC(=O)[C@H]1CNC[C@@H]1NC(=O)[C@@H](N)CCCNC(=N)N[N+](=O)[O-]`: 0.087 µM; `Cc1cc(C[C@H]2CNC[C@H]2NCCNCc2ccc(Cl)cc2)cc(N)n1` (racemic): 18.8 µM.
Same read-out and setting: next, `Cc1cc(N)nc(C[C@H]2CNC[C@H]2N(C)CCNCCc2cccc(F)c2)c1` (racemic): 0.326 µM.
The compound `Cc1cc(N)nc(C[C@H]2CNC[C@H]2N(C)CCN(C)CCc2cccc(F)c2)c1` (racemic) yielded a Ki of 1.21 µM.
Take `Cc1cc(N)nc(C[C@H]2CNC[C@H]2NCCNCc2ccc(Cl)cc2Cl)c1` (racemic): the affinity, expressed as Ki, was 0.11 µM.
On the same count and under the same terms, under `Cc1cc(N)nc(C[C@H]2CNC[C@H]2NC[C@H](C)NCc2ccc(Cl)cc2)c1` (racemic) stands 0.136 µM.
The same measure, in the same setting: under `Cc1cc(N)nc(C[C@H]2CNC[C@H]2NCCNCc2ccc(F)cc2)c1` (racemic) stands 0.144 µM.

In the next assay the target is T1, Nitric oxide synthase 3 (Bos taurus, UniProt P29473).
T1 sequence (P29473 whole entry): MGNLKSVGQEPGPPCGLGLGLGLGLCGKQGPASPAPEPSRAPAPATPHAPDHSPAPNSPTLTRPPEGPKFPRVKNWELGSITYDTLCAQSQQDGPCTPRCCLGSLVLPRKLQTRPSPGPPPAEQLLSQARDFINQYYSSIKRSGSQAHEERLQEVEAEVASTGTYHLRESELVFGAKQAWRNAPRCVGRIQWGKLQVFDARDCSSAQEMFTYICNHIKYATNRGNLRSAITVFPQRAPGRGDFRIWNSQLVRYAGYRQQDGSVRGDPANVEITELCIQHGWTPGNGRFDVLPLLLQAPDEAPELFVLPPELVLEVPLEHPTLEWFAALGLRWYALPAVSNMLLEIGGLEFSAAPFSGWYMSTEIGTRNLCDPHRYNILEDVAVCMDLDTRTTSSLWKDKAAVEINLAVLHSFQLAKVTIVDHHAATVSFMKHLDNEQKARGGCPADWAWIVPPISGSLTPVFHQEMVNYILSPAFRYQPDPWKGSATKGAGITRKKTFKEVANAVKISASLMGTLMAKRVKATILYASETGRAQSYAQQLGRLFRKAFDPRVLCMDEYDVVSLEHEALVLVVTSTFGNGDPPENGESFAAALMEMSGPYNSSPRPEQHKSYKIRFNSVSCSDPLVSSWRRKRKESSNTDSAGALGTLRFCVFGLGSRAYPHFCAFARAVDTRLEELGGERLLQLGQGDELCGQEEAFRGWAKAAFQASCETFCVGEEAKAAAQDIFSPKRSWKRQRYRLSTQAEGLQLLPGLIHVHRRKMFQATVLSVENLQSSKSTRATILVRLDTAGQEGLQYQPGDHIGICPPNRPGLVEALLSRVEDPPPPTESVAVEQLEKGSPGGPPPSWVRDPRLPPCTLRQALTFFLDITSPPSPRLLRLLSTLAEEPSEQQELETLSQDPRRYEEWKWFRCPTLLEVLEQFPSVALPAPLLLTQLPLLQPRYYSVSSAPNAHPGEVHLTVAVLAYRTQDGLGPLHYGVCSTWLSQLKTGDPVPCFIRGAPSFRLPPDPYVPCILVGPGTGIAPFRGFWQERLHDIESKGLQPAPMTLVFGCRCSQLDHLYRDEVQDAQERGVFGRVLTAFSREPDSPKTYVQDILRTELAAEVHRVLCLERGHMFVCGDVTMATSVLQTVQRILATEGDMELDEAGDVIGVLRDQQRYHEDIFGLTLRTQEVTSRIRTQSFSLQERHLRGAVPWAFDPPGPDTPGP
Description: Inhibition of bovine recombinant eNOS expressed in Escherichia coli by hemoglobin capture assay
Compound `Nc1cccc(C[C@H]2CNC[C@H]2NC[C@@H](N)Cc2ccccc2)n1` (racemic) showed a Ki of 1450 µM.
The same measure, in the same setting: under `Nc1cccc(C[C@H]2CNC[C@H]2NC[C@H](N)Cc2ccccc2)n1` (racemic) stands 1450 µM; under `Cc1cc(N)nc(C[C@H]2CNC[C@H]2NCCNCCc2ccc(F)cc2)c1` (racemic), 18 µM.
Same read-out and setting: under `Cc1cccc(CNCCN[C@@H]2CNC[C@@H]2Cc2cc(C)cc(N)n2)c1` (racemic) stands 72 µM; under `CN(C)CCN[C@@H]1CNC[C@@H]1Cc1cccc(N)n1` (racemic), 140 µM; under `Cc1cc(N)nc(C[C@H]2CNC[C@H]2NCCNCc2ccc(C(F)(F)F)cc2)c1` (racemic), 84 µM.
Still for that read-out and setting: under `Nc1cccc(C[C@H]2CNC[C@H]2N[C@H]2CCNC2)n1` (racemic) stands 243 µM.
In turn, `CC(=O)[C@@H]1C[C@@H](NC(=O)[C@@H](N)CCCNC(=N)N[N+](=O)[O-])CN1` registered a Ki of 128 µM.
Still for that read-out and setting: under `Nc1cccc(C[C@H]2CNC[C@H]2N[C@@H]2CCNC2)n1` (racemic) stands 424 µM; under `Cc1cc(N)nc(C[C@H]2CNC[C@H]2NCCNCc2ccc(Cl)c(Cl)c2)c1` (racemic), 41 µM.
For `Cc1cc(C[C@H]2CNC[C@H]2NCCNCCc2cccc(F)c2)cc(N)n1` (racemic), the Ki amounted to 164 µM.
On the same count and under the same terms, under `Nc1cccc(C[C@H]2CNC[C@H]2NCCNCc2ccccc2)n1` (racemic) stands 1450 µM.
On the same count and under the same terms, next, `Nc1cccc(C[C@H]2CNC[C@H]2N[C@H]2CCN(Cc3ccccc3)C2)n1` (racemic): 108 µM; `Nc1cccc(C[C@H]2CNC[C@H]2N[C@@H]2CCN(Cc3ccccc3)C2)n1` (racemic): 181 µM.
Still for that read-out and setting: under `CC(=O)[C@H]1CNC[C@@H]1NC(=O)[C@@H](N)CCCNC(=N)N[N+](=O)[O-]` stands 200 µM; under `Cc1cc(C[C@H]2CNC[C@H]2NCCNCc2ccc(Cl)cc2)cc(N)n1` (racemic), 141 µM.
In turn, `Cc1cc(N)nc(C[C@H]2CNC[C@H]2N(C)CCNCc2ccc(Cl)cc2)c1` (racemic) yielded a Ki of 125 µM.
In turn, `Cc1cc(N)nc(C[C@H]2CNC[C@H]2N(C)CCNCCc2cccc(F)c2)c1` (racemic) showed a Ki of 92.4 µM.
Regarding `Cc1cc(N)nc(C[C@H]2CNC[C@H]2N(C)CCN(C)CCc2cccc(F)c2)c1` (racemic), the affinity corresponds to a Ki of 48.9 µM.
In turn, `Cc1cc(N)nc(C[C@H]2CNC[C@H]2NCCNCc2ccc(Cl)cc2Cl)c1` (racemic) yielded a Ki of 30 µM.
As to `Cc1cc(N)nc(C[C@H]2CNC[C@H]2NC[C@H](C)NCc2ccc(Cl)cc2)c1` (racemic), the Ki amounted to 40 µM.
Take `Cc1cc(N)nc(C[C@H]2CNC[C@H]2NCCNCc2ccc(F)cc2)c1` (racemic): the affinity, expressed as Ki, was 130 µM.

The target of the next assay is T2, Nitric oxide synthase, inducible (Mus musculus, UniProt P29477).
T2 sequence (P29477 whole entry): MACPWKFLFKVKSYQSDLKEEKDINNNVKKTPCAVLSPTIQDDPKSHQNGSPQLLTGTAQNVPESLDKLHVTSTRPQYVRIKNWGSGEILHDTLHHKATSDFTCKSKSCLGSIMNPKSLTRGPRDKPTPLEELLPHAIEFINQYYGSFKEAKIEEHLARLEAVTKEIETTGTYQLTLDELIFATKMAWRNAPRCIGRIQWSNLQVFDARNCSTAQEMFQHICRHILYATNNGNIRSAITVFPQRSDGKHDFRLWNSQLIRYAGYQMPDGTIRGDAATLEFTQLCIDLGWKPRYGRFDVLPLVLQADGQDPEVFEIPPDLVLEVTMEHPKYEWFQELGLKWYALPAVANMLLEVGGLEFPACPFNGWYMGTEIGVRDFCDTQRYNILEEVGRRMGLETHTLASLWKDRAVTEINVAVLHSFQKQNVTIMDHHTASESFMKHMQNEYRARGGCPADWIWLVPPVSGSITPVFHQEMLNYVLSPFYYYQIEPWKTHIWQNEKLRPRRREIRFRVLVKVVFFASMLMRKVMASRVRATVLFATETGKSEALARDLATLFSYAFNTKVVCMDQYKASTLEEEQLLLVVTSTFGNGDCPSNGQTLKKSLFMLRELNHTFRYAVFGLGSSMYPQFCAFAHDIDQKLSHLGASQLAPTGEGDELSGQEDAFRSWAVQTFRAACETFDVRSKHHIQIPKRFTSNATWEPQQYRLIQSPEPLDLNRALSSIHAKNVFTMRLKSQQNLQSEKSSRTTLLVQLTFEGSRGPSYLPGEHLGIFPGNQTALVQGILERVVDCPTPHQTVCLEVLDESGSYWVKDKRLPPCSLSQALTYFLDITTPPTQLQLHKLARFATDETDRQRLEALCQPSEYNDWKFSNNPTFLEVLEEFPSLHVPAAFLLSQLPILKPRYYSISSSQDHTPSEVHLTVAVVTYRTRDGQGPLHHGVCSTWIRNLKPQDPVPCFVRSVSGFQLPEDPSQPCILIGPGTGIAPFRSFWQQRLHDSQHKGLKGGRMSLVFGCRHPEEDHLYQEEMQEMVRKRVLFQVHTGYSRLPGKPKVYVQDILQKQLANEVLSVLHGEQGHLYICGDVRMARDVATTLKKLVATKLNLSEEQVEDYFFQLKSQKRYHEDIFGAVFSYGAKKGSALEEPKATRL
Description: Inhibition of mouse recombinant iNOS expressed in Escherichia coli by hemoglobin capture assay
The compound `Nc1cccc(C[C@H]2CNC[C@H]2NC[C@@H](N)Cc2ccccc2)n1` (racemic) had a Ki of 297 µM.
Still for that read-out and setting: next, `Nc1cccc(C[C@H]2CNC[C@H]2NC[C@H](N)Cc2ccccc2)n1` (racemic): 238 µM.
Same read-out and setting: under `Cc1cc(N)nc(C[C@H]2CNC[C@H]2NCCNCCc2ccc(F)cc2)c1` (racemic) stands 4.6 µM.
As to `Cc1cccc(CNCCN[C@@H]2CNC[C@@H]2Cc2cc(C)cc(N)n2)c1` (racemic), affinity was put at a Ki of 9.01 µM.
The same measure, in the same setting: under `CN(C)CCN[C@@H]1CNC[C@@H]1Cc1cccc(N)n1` (racemic) stands 195 µM; under `Cc1cc(N)nc(C[C@H]2CNC[C@H]2NCCNCc2ccc(C(F)(F)F)cc2)c1` (racemic), 14.1 µM; under `Nc1cccc(C[C@H]2CNC[C@H]2N[C@H]2CCNC2)n1` (racemic), 174 µM.
Still for that read-out and setting: next, `CC(=O)[C@@H]1C[C@@H](NC(=O)[C@@H](N)CCCNC(=N)N[N+](=O)[O-])CN1`: 29 µM; `Nc1cccc(C[C@H]2CNC[C@H]2N[C@@H]2CCNC2)n1` (racemic): 200 µM.
The same measure, in the same setting: next, `Cc1cc(N)nc(C[C@H]2CNC[C@H]2NCCNCc2ccc(Cl)c(Cl)c2)c1` (racemic): 3.56 µM; `Cc1cc(C[C@H]2CNC[C@H]2NCCNCCc2cccc(F)c2)cc(N)n1` (racemic): 10.6 µM.
As to `Nc1cccc(C[C@H]2CNC[C@H]2NCCNCc2ccccc2)n1` (racemic), the Ki came to 161 µM.
Compound `Nc1cccc(C[C@H]2CNC[C@H]2N[C@H]2CCN(Cc3ccccc3)C2)n1` (racemic) returned a Ki of 222 µM.
In turn, `Nc1cccc(C[C@H]2CNC[C@H]2N[C@@H]2CCN(Cc3ccccc3)C2)n1` (racemic) returned a Ki of 425 µM.
`CC(=O)[C@H]1CNC[C@@H]1NC(=O)[C@@H](N)CCCNC(=N)N[N+](=O)[O-]` showed a Ki of 5.76 µM.
`Cc1cc(C[C@H]2CNC[C@H]2NCCNCc2ccc(Cl)cc2)cc(N)n1` (racemic) showed a Ki of 232 µM.
Regarding `Cc1cc(N)nc(C[C@H]2CNC[C@H]2N(C)CCNCCc2cccc(F)c2)c1` (racemic), the Ki was 38.2 µM.
Still for that read-out and setting: under `Cc1cc(N)nc(C[C@H]2CNC[C@H]2N(C)CCN(C)CCc2cccc(F)c2)c1` (racemic) stands 56.6 µM.
Same read-out and setting: next, `Cc1cc(N)nc(C[C@H]2CNC[C@H]2NCCNCc2ccc(Cl)cc2Cl)c1` (racemic): 7.7 µM; `Cc1cc(N)nc(C[C@H]2CNC[C@H]2NC[C@H](C)NCc2ccc(Cl)cc2)c1` (racemic): 12.2 µM; `Cc1cc(N)nc(C[C@H]2CNC[C@H]2NCCNCc2ccc(F)cc2)c1` (racemic): 7.97 µM.
